Results from PMC3163566, “Combined analysis of transcriptome and metabolite data reveals extensive differences between black and brown nearly-isogenic soybean (Glycine max) seed coats enabling the identification of pigment isogenes” (BMC Genomics, 2011).

Tests used:
OMT5 = target: T1, OMT5 (Glycine max, UniProt F2YBA9); experiment: HPLC-DAD and HPLC-MS/MS product detection; format: biochemical; settings: methyl acceptor; SAM 100 uM, MgCl2 150 uM, Tris pH 7.5, 35 °C, 1 h; product peonidin-3-O-glucoside
T1 construct: full-length CDS, N-terminal His6 tag (pET-14b), E. coli BL21(DE3) pLysS, IMAC purified; primers based on mRNA BT098523
T1 sequence (F2YBA9 1-248): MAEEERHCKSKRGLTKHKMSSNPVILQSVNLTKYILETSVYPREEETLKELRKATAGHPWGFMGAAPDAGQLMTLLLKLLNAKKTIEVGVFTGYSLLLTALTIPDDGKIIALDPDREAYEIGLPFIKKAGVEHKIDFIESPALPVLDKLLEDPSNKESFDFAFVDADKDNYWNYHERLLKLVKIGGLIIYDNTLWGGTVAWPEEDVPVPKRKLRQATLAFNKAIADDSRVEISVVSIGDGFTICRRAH

UGT78K2 = target: T2, UGT78K2 (Glycine max, UniProt G0WMC8); experiment: HPLC-DAD and HPLC-MS/MS product detection; format: biochemical; settings: glucose acceptor; 5 mM UDP-glucose; 30 °C, 5 min; product cyanidin-3-O-glucoside
T2 construct: full-length CDS, N-terminal His6 tag (pET-14b), E. coli BL21(DE3) pLysS, IMAC purified
T2 sequence (G0WMC8 1-447): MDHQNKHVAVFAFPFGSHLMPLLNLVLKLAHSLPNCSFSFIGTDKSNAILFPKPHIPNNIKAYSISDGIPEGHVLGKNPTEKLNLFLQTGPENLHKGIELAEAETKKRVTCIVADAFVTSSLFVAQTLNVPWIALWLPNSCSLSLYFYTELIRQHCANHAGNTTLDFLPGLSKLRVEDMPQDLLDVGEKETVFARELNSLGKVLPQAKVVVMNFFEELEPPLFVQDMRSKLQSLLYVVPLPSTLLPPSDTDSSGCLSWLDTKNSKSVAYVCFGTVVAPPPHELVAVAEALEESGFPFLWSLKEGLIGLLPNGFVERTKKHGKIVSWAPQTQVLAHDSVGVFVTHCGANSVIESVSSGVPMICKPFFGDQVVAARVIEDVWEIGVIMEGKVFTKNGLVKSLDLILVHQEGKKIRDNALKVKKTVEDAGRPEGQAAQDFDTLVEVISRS

| Compound | HPLC-DAD and HPLC-MS/MS product detection (OMT5) | HPLC-DAD and HPLC-MS/MS product detection (UGT78K2) |
| --- | --- | --- |
| OC[C@H]1O[C@@H](Oc2cc3c(O)cc(O)cc3[o+]c2-c2ccc(O)c(O)c2)[C@H](O)[C@@H](O)[C@@H]1O [cyanidin-3-O-glucoside] | methyl donor and cyanidin-3-O-glucoside as the acceptor, the recombinant enzyme transferred a methyl group | – |
| Oc1cc(O)c2cc(O)c(-c3ccc(O)c(O)c3)[o+]c2c1 [cyanidin] | – | the recombinant enzyme transferred glucose to the 3-position of cyanidin to form cyanidin-3-O-glucoside |
